{"source": "patent US9968633B2", "about": "“Stimuli responsive compositions for iron chelation” (WISCONSIN ALUMNI RESEARCH FOUNDATION, priority 2014, dated 2018)", "key": {"[1]": {"system": "iron-overloaded J774A.1 cells", "experiment": "Ferritin reduction assay in iron overloaded J774A.1 cells", "assay_type": "cell-based, mouse", "details": "for Ferritin decrease: 48 h", "procedure": "J774A.1 cells were seeded in 6-well plates at a density of 30,000 cell/well and allowed to settle for 24 h at 37° C., 5% CO2 with DMEM complete medium before treatment. […] Subsequently, cells were washed with PBS and treated with DFO or oxNG-DFO at both 10 μM and 50 μM for 48 h. […] After 48 h incubation with DFO or oxNG-DFO, cells were lysed with cell lysis buffer (150 mM NaCl, 10 mM Tris, 1% Triton X-100 and protease inhibitor cocktail, pH 7.4) and total protein concentration was measured with the BCA protein assay kit. Cellular ferritin concentration was measured with a mouse ferritin ELISA kit. The results are plotted as the ratio of ng of ferritin per μg total protein concentration.\nSubsequently, iron-loaded cells were treated for 48 h with 10 μM or 50 μM free DFO or equivalent oxNG2-DFO."}, "[2]": {"system": "Human umbilical vein endothelial cells (HUVEC)", "experiment": "Cytotoxicity, resazurin assay, HUVEC", "assay_type": "cell-based", "details": "48 h, DFO equivalents, read-out: Concentration to inhibit 50% cell growth", "procedure": "Human umbilical vein endothelial cells (HUVEC) were obtained from Lonza, Inc., and cultured at 37° C./5% CO2 in EGM-2 complete medium. For the cytotoxicity assay, cells were seeded into 96-well plates at a density of 3,000 cell/well and allowed to equilibrate for 2 days before treatment. […] Readings from the wells without cells were used as blanks (Eblank), and the readings taken from control cells without treatment (Econtrol) 1 represented 100% cell viability. The viability of treated cells at each concentration can be calculated by the following equation: Cell Viability=100×(Esample˜Eblank)/(Econtrol˜Eblank)%"}, "J774A.1 cells": {"system": "J774A.1 cells", "experiment": "Cytotoxicity, resazurin assay, normal J774A.1 cells", "assay_type": "cell-based", "details": "Mus musculus, J774.A1, 48 h, DFO equivalents, read-out: Concentration giving 50% cell viability"}, "in vitro": {"experiment": "in vitro", "details": "mouse", "procedure": "(§1) Mouse macrophage/monocyte cell line, J774A.1, was purchased from American Type Culture Collection (ATCC). Cells were seeded in 96-well plates at a density of 3,000 cells/well, cultured at 37° C., 5% CO2 with DMEM complete medium (supplemented with 10% (v/v) heat-inactivated FBS, 100 I.U./mL penicillin and 100 μg/mL streptomycin), and allowed to settle for 24 h. Cells were then treated with DFO or oxNG-DFO at equivalent DFO concentrations of 1 mM prepared by 1:3 serial dilutions.\n(§2) Cell viability was measured with the metabolism-based resazurin assay. Briefly, the substrate resazurin was dissolved in cell culture medium at a concentration of 44 μM, added to each well (100 μl) and incubated at 37° C. for 4 h. The fluorescence was measured with excitation at 560 nm and emission at 590 nm, on a SpectraMax Gemini EM microplate reader. Readings from the wells without cells were used as Eblank, and the readings from control cells without treatment (Econtrol) represented 100% cell viability. The viability of treated cells at different concentrations can be calculated by the following equation: […]\n(§3) Similarly, cytotoxicity was also evaluated in iron-overloaded J774A.1 cells as described above.\n(§4) To evaluate the cytotoxicity of the nanogels, cells in complete DMEM medium were treated with equivalent amounts of free DFO or oxNG2-DFO ranging from 0.05-1000 μM and allowed to incubate for 48 h prior to evaluating cytotoxicity with a metabolism-based resazurin assay."}, "[3]": {"system": "iron-overloaded J774A.1 cells", "experiment": "cells", "details": "Mus musculus, J774.A1, 48 h, read-out: Concentration giving 50% cell viability", "procedure": "as §1, §2, §3, §4"}}, "note": "Several values for one entry are separate records, joined by “and”; a condition that tells them apart may be missing. Identical values can stand only once. Counter-ions that a name gives are not always drawn.", "data": [{"compound": "CC(=O)N(O)CCCCCNC(=O)CCC(=O)N(O)CCCCCNC(=O)CCC(=O)N(O)CCCCCN", "note": "[DFO, Deferoxamine mesylate]", "values": [{"measurement": "Cellular ferritin level", "setting": "[1]", "value": "5.33 ng/μg total protein and 2.84 ng/μg total protein"}, {"measurement": "Ferritin decrease", "setting": "[1]; 10 μM DFO or equivalent", "value": 37.4, "unit": "%"}, {"measurement": "Ferritin decrease", "setting": "[1]; 50 μM DFO or equivalent", "value": 66.6, "unit": "%"}, {"measurement": "IC50", "setting": "[2]", "value": "~2", "unit": "µM"}, {"measurement": "IC50", "setting": "J774A.1 cells", "value": "~10", "unit": "µM"}, {"measurement": "viability at 48 h, 10 μM", "setting": "in vitro", "value": "~50", "unit": "%"}, {"measurement": "viability at 48 h, 50 μM", "setting": "in vitro", "value": "< 50", "unit": "%"}, {"measurement": "IC50", "setting": "[3]", "value": "~15", "unit": "µM"}]}, {"compound": "Ferric ammonium citrate [FAC]", "values": [{"measurement": "Cellular ferritin expression after iron loading", "setting": "[1]", "value": 8.51, "unit": "ng/µg"}]}]}
